Structures are written as SMILES.

The target in assay [1] is T1, recombinant RNR (RRM1 + RRM2) (Homo sapiens, UniProt P31350).
T1 construct: with Ribonucleoside-diphosphate reductase large subunit
T1 sequence (P31350 1-389): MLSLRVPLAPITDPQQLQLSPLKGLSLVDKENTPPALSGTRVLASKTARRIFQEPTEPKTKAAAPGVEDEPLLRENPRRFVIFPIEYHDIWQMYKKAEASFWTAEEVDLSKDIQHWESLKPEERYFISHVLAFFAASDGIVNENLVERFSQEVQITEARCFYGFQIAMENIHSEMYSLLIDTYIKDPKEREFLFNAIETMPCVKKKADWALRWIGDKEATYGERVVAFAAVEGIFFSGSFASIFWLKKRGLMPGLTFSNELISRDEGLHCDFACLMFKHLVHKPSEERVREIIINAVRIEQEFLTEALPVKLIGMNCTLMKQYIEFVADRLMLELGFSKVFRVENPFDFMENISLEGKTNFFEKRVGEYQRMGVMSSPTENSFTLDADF
T1 sequence (P23921 1-792 partner): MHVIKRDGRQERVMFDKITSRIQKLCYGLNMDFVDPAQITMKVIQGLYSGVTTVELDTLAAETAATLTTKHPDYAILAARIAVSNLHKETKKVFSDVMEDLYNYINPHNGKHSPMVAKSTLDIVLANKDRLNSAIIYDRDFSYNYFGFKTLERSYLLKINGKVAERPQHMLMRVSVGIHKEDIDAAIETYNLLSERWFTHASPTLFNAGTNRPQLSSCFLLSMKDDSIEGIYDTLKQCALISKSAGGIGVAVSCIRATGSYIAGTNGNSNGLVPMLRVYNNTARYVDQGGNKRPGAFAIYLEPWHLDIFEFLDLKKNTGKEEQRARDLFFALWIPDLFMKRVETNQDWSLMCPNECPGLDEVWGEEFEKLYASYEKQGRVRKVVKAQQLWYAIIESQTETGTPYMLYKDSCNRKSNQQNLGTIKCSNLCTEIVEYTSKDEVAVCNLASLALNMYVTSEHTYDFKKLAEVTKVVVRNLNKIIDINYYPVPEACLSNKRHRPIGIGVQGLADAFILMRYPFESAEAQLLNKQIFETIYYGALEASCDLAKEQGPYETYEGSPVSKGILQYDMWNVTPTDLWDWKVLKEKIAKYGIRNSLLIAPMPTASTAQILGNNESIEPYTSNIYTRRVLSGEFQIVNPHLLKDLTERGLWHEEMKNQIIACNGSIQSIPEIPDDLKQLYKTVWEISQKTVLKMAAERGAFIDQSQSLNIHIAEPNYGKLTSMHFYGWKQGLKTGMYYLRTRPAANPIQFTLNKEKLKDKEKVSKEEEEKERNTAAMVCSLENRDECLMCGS
In words: recombinant RNR activity assay, CDP to dCDP conversion. The assay is classed as biochemical.

The target in assay [2] is T2, RRM2 (Homo sapiens, UniProt P31350).
T2 construct: recombinant purified RRM2, lysine-labelled for MST
T2 sequence (P31350 1-389): T1 sequence (P31350 1-389)
The assay can be described thus: microscale thermophoresis. The assay is classed as binding.

A word on the IC50: it is the concentration that gives 50% inhibition. As to `NC(=O)NO` [HU, hydroxyurea, reference compound], the IC50 in assay [1] was 29.8 µM.
As usually defined, the Kd is the constant that tells how readily two partners part at equilibrium. Low readings indicate higher affinity, high ones lower affinity. For the molecule `Oc1ccc(OCc2ccccc2)cc1` [MB, monobenzone], the 50% inhibitory concentration (IC50) in assay [1] stood at 0.25 µM. Also, in assay [2], the Kd stood at 22.5 ± 14 µM.

The record behind these values is paper PMC9564123, “Identification of Monobenzone as a Novel Potential Anti-Acute Myeloid Leukaemia Agent That Inhibits RNR and Suppresses Tumour Growth in Mouse Xenograft Model” (Cancers, 2022).
